The source of these data is patent publication US9085555B2, “Complement pathway modulators and uses thereof” (priority 2011, dated 2015).

pIC50: −log10 of the molar value. Like-named read-outs stand apart in the source and are kept apart here.

The target in this test is Factor D (Homo sapiens (Human), UniProt P00746). The experiment in a line: biochemical. The class given is biochemical.
Chain of Factor D (P00746 26-253): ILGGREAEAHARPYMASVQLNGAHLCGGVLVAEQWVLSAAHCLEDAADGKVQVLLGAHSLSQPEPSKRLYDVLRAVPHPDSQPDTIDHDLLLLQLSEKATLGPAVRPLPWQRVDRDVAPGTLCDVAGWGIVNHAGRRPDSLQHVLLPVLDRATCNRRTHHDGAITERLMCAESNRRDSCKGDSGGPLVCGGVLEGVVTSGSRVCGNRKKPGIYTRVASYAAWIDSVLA

Consider `C[C@@]1(F)C[C@@H](C(=O)NCc2cccc(Cl)c2F)N(C(=O)Cc2cn(C(N)=O)c3ccc(OCCO)cc23)C1` [Example 459, 3-{2-[(2S,4R)-2-(3-Chloro-2-fluoro-benzylcarbamoyl)-4-fluoro-4-methyl-pyrrolidin-1-yl]-2-oxo-ethyl)-5-(2-hydroxy-ethoxy)-indole-1-carboxylic acid amide], for which the pIC50 (read-out: IC50) was 6.68.
The same measure, in the same setting: with `NC(=O)n1cc(CC(=O)N2C[C@H](F)C[C@H]2C(=O)NCc2cccc(Cl)c2F)c2cc(F)ccc21` [Example 460, 3-{2-[(2S,4R)-2-(3-Chloro-2-fluoro-benzylcarbamoyl)-4-fluoro-pyrrolidin-1-yl]-2-oxo-ethyl}-5-fluoro-indole-1-carboxylic acid amide] the figure was 7.70.
On the same count and under the same terms, to `NC(=O)n1cc(CC(=O)N2CCS[C@H]2C(=O)NCc2cccc(Cl)c2F)c2cc(OCCO)ccc21` [Example 462, 3-{2-[(S)-2-(3-Chloro-2-fluoro-benzylcarbamoyl)-thiazolidin-3-yl]-2-oxo-ethyl}-5-(2-hydroxy-ethoxy)-indole-1-carboxylic acid amide] belongs 7.12.
On the same count and under the same terms, with `NC(=O)n1cc(CC(=O)N2C[C@H]3C[C@H]3[C@H]2C(=O)N[C@H](CO)c2cccc(Cl)c2F)c2ccccc21` [Example 463, 3-(2-{(1R,2S,5S)-2-[(S)-1-(3-Chloro-2-fluoro-phenyl)-2-hydroxy-ethylcarbamoyl]-3-azabicyclo[3.1.0]hex-3-yl}-2-oxo-ethyl)-indole-1-carboxylic acid amide] the figure was 5.51.
Regarding `COC[C@@H](NC(=O)[C@@H]1C[C@H]2C[C@H]2N1C(=O)Cc1cn(C(N)=O)c2ccccc12)c1cccc(Cl)c1F` [Example 464, 3-(2-{(1R,3S,5R)-3-[(S)-1-(3-Chloro-2-fluoro-phenyl)-2-methoxy-ethylcarbamoyl]-2-aza-bicyclo[3.1.0]hex-2-yl}-2-oxo-ethyl)-indole-1-carboxylic acid amide], the pIC50 (read-out: IC50) is 6.60.
`NC(=O)n1cc(CC(=O)N2C[C@H](F)[C@@H](N)[C@H]2C(=O)NCc2cccc(Cl)c2F)c2ccccc21` [Example 466, 3-{2-[(2S,3S,4S)-3-Amino-2-(3-chloro-2-fluoro-benzylcarbamoyl)-4-fluoro-pyrrolidin-1-yl]-2-oxo-ethyl}-indole-1-carboxylic acid amide]: the pIC50 (read-out: IC50) was 7.37.
Take `NC(=O)n1cc(CC(=O)N2[C@H](C(=O)NCc3cccc(Cl)c3F)C[C@@]3(CO)C[C@@H]23)c2ccccc21` [Example 467, 3-{2-[(1R,3S,5S)-3-(3-Chloro-2-fluoro-benzylcarbamoyl)-5-hydroxymethyl-2-aza-bicyclo[3.1.0]hex-2-yl]-2-oxo-ethyl}-indole-1-carboxylic acid amide]: under “read-out: IC50”, the pIC50 was 7.33.
Molecule `NC(=O)n1cc(CC(=O)N2C[C@@H](N)C[C@H]2C(=O)NCc2cccc(Cl)c2F)c2ccccc21` [Example 468, 3-{2-[(2S,4S)-4-Amino-2-(3-chloro-2-fluoro-benzylcarbamoyl)-pyrrolidin-1-yl]-2-oxo-ethyl}-indole-1-carboxylic acid amide] gave a pIC50 of 6.46.
With `NC(=O)n1cc(CC(=O)N2NCCC2C(=O)NCc2cccc(Cl)c2)c2ccccc21` (centres unmarked) [Example 469, 3-{2-[5-(3-Chloro-benzylcarbamoyl)-pyrazolidin-1-yl]-2-oxo-ethyl}-indole-1-carboxylic acid amide], the pIC50 (read-out: IC50) is 5.47.
On the same count and under the same terms, with `NC[C@@]1(F)C[C@@H](C(=O)NCc2cccc(Cl)c2F)N(C(=O)Cc2cn(C(N)=O)c3ccccc23)C1` [Example 470, 3-{2-[(2S,4S)-4-Aminomethyl-2-(3-chloro-2-fluoro-benzylcarbamoyl)-4-fluoro-pyrrolidin-1-yl]-2-oxo-ethyl}-indole-1-carboxylic acid amide] the figure was 6.60.
Still for that read-out and setting: with `NC[C@@]1(F)C[C@@H](C(=O)NCc2c(F)ccc(Cl)c2F)N(C(=O)Cc2cn(C(N)=O)c3ccccc23)C1` [Example 471, 3-{2-[(2S,4S)-4-Aminomethyl-2-(3-chloro-2,6-difluoro-benzylcarbamoyl)-4-fluoro-pyrrolidin-1-yl]-2-oxo-ethyl}-indole-1-carboxylic acid amide] the figure was 7.05.
